Laboratory results taken from a melting point compilation (Tetko et al.; mined from patent text by program, amines drawn as free bases though some values may be those of a salt).

Row | melting point | Compound
1 | 180 °C | N#CSCC(Br)=C(Br)CSC#N
2 | 188 to 192 °C | CN(C)c1ccc(-n2c(CC(=O)O)c(C(=O)O)c3cc(Oc4ccc(OC(F)(F)F)cc4)ccc32)cc1
3 | 212 to 214 °C | Nc1cccc(-c2ccc(CCN3CCN(c4nnnn4-c4ccccc4)CC3)cc2)n1
4 | 178 to 180 °C | C[C@@H](C(N)=O)c1ccc(NS(=O)(=O)c2ccc(C(F)(F)F)cc2)cc1
5 | 171 to 172 °C | CC(C)(C)c1cc(C(=O)NCc2cccc(N)c2)cc(C(C)(C)C)c1O
6 | 71 to 73 °C | CCOC(=O)C(=CNC1CC1)C(=O)c1cc(Cl)c(F)c(F)c1F
7 | 171 to 174 °C | Cc1cc(C(=O)O)ccc1-c1ccccc1C(F)(F)F
8 | 76 °C | CC(C)(C)OC(=O)NC1Cc2ccccc2CC1=O (single isomer, unassigned; (+))
9 | 106 to 108 °C | CCOc1nc(OCC)nc(N2CCN(C=O)CC2)n1
10 | 131 to 135 °C | Nc1cc(Oc2ccc(NC(=O)Nc3ccc(-c4ccncc4)c(C(F)(F)F)c3)cc2)ncn1
11 | 194 to 195 °C | COc1ccc(S(=O)(=O)N2CCn3c(c(C(N)=O)c(Cl)c3-c3ccccc3)C2)cc1
12 | 70 to 71 °C | O=S(CCCCl)Cc1ccccc1 (stereo unspecified)
13 | 132 to 134 °C | O=C(CCl)OCN1C(=O)CN(CCN2CC(=O)N(COC(=O)CCl)C(=O)C2)CC1=O
14 | 125 to 126 °C | CC(=O)Oc1c(CN(C)C)c2c(c3c1OC(C)(C)C3)C(c1ccccc1)=NC(C)(C)C2
15 | 169 to 170 °C | S=c1nc(-c2ccc(Cl)cc2Cl)[nH]n1Cc1ccccc1
16 | 136 to 137 °C | CCCc1c(OCCCOc2ccc(Cl)c(Cl)c2)ccc2c1OC(CCC(=O)O)(CCC(=O)O)CC2=O
17 | 295 to 297 °C | CCOc1ccccc1-c1nc2c(C(N)=O)ccnc2c(=O)[nH]1
18 | 77 to 80 °C | CCCCCCCCCCCCCCCCCCOc1cc(OCCCOc2ccc(S(C)=O)cc2)cc(C(=O)O)c1 (stereo unspecified)
19 | 166 to 168 °C | CC(=O)OC1C(CO)OC(c2ccc(Cl)c(Cc3ccc(-c4ccccc4)s3)c2)C(OC(C)=O)C1OC(C)=O (stereo unspecified)
20 | 189 to 191 °C | Cc1cccc(Sc2ccc3c(c2)CC[C@H]2NC(=O)CC[C@]32C)c1
21 | 142 to 144 °C | CN1CCCC1=NC(=S)Nc1ccccc1
22 | 140 to 141 °C | CCOCCOC(=O)C(=O)Nc1nc(-c2cc(OC)ccc2OC)cs1
23 | 177 °C | O=C(NCc1ccncc1)c1ccccc1

Row | melting point | Compound
24 | 174 °C | O=C(c1ccccc1)c1ccc2cc[nH]c2n1
25 | 178 to 180 °C | CC(C)(C)OC(=O)N1CCN(c2ccc(NC=O)nc2)CC1
26 | 79 to 80 °C | c1ccc(C(Cc2nc(COc3ccc(CCCn4ccnc4)cc3)co2)c2ccccc2)cc1
27 | 216 to 220 °C | O=C(O)CN(CCCCC(C(=O)O)N(CC(=O)O)CC(=O)O)CC(=O)O (stereo unspecified)
28 | 77 to 79 °C | CCC(O)Cn1cc(-c2cccc(C(F)(F)F)c2)cn1 (stereo unspecified)
29 | 220 to 230 °C | Cc1c(C(=O)Nc2ccc(N3CCC(N4CCOCC4)CC3)c(Br)c2)cnn1-c1ccc(C(F)(F)F)cc1
30 | 40 to 41 °C | CC(C)(C)OC(=O)N1CCC[C@H]1COc1cccc2[nH]ccc12
31 | > 240 °C | O=C(O)c1cc(Cn2cc(C3c4ccccc4C=Cc4ccccc43)c(=S)[nH]c2=O)ccc1O
32 | 210 to 213 °C | CCNC(=O)CCC(=O)c1ccc(NS(C)(=O)=O)cc1
33 | 146 to 148 °C | O=c1c2ccccc2n(Cc2ccccc2)n2cccc12
34 | 112 °C | Cn1cc(C2=NOCCO2)c(Cl)n1
35 | 99 to 100 °C | CC(=O)C1C(=O)CC(CCS(=O)c2ccc(C(F)(F)F)cc2)CC1=O (stereo unspecified)
36 | 185 to 187 °C | Cc1ccc2sc3cc(CC(=O)O)ccc3c2c1
37 | 172 to 174 °C | Cn1c(C(F)(F)F)cc(=O)n(-c2cc(C=O)c(Cl)cc2F)c1=O
38 | 178 °C | O=C(ON1C(=O)CCC1=O)c1ccccc1
39 | > 300 °C | C#Cc1c(-c2ccc(OC(F)F)c(OC3CC3)c2)[nH]c2cn[nH]c(=O)c12
40 | 100 °C | O[C@@H]1[C@H](O)[C@H](O)CO[C@H]1n1c(Br)nc2ccc(Cl)cc21
41 | 104 to 107 °C | CC(C)(C)CC(C)(C)c1ccc(N)c([N+](=O)[O-])c1
42 | 116 to 117 °C | CON=C(C(=O)O)c1cc2sccc2s1
43 | 187 to 190 °C | O=C(O)c1ccc2c(c1)COC2c1ccc(F)cc1 (stereo unspecified)
44 | 201 to 202 °C | Cc1ccc(-c2ccc3c(c2)C=C(C(=O)Nc2ccc(CCN4CCCCC4)cc2)CCO3)cc1
45 | 123 to 125 °C | COC(=O)c1ccc(OC(=O)c2ccccc2C(=O)Oc2ccc(C(=O)OC)cc2)cc1
46 | 65 to 67 °C | Fc1cccc2[nH]c(-c3ccccc3)cc12

Row | melting point | Compound
47 | 128 °C | O=C(Nc1ccc(Oc2ccccc2)cc1)c1cc([N+](=O)[O-])ccc1Cl
48 | 108 to 109 °C | N#CN1c2ccccc2C=Cc2ccccc21
49 | 254 °C | Nc1ncc(-c2noc(-c3cnn4c(C(F)(F)F)cc(-c5ccc(C(F)(F)F)cc5)nc34)n2)cn1
50 | 81 to 82 °C | C=Cc1noc(C2=CCCN(C(=O)OC(C)(C)C)C2)n1
51 | 168 to 170 °C | Fc1cccc2c1CN(NC1=NCCN1)C2
52 | 184 to 186 °C | COc1ccc(-n2nc(C#N)cc2-c2ccc(S(C)(=O)=O)cc2)cc1Br
53 | 137 to 139 °C | Cn1c(-c2ccccc2F)n[nH]c1=S
54 | 155 to 158 °C | CCC(=O)c1ccccc1CS(=O)(=O)NC(=O)Nc1nc(OC)cc(OC)n1
55 | 238 °C | CC(=O)OCC(=O)C1C(C)CC2C3CC(Cl)C4=CC(=O)C=CC4(C)C3(Cl)C(O)CC21C (stereo unspecified)
56 | 186 to 188 °C | COc1cccc2c1oc1c(N)n(C)nc12
57 | 218 to 223 °C | CC1OCC(C)n2c1nc1c(N)nc3ccccc3c12 (stereo unspecified)
58 | 144 to 146 °C | CNC(=C[N+](=O)[O-])NOCCCc1csc(NC(=N)N)n1
59 | 103 to 106 °C | CCOC[PH](=O)SCCSCCNC(=O)CCCCCn1c(=O)n(C)c(=O)c2[nH]cnc21 (stereo unspecified)
60 | 149 to 150 °C | CC(=O)CC(=O)N1C(=N)CCN=C(c2ccccc2)c2cc(Cl)ccc21
61 | 163 to 164 °C | CCOC(=O)CCc1cccc(-c2c(CC(=O)Nc3ccc(F)cc3C(F)(F)F)c(=O)oc3ccccc23)c1
62 | 129 °C | CC(C)(C)C(O)C1C(C(=O)O)C1(C)C (stereo unspecified)
63 | 113 to 115 °C | O=C1c2cccc3cccc(c23)C(=O)N1CCCCBr
64 | 160 °C | O=C(O)CCc1nc(-c2ccccc2)cc2ccccc12
65 | 211 °C | O=C(O)c1c(CNS(=O)(=O)c2cccc(Cl)c2)nn(-c2ccc(Cl)cc2Cl)c1-c1ccc(Cl)cc1
66 | 184 °C | COc1ccc(-c2ccc(C(=O)Nc3cc4ncc(CN5CCCC5)cc4cc3Cl)cc2)cc1
67 | 71 to 72 °C | COC(=O)C1=C(CF)NC(C)=C(C(=O)OC(C)C)C1c1ccccc1C(F)(F)F (stereo unspecified)

Row | Compound | melting point
68 | Cc1ccc2c(c1)C(=O)N(C)Cc1c(C(N)=O)ncn1-2 | 290 to 294 °C
69 | O=C(CCNC(=O)[C@H](Cc1ccc(-c2ccccc2)cc1)NCP(=O)(Oc1ccccc1)Oc1ccccc1)Oc1ccc2c(c1)CCC2 | 89 to 91 °C
70 | Clc1ccc(C(C2=NCCN2)c2nccs2)cc1 (stereo unspecified) | 145 to 147 °C
71 | Cc1cccc2cc(N3CCN(C)CC3)[nH]c(=O)c12 | 224 to 225 °C
